From ChEMBL document CHEMBL5365532, “Discovery of Triazinone Derivatives as Novel, Specific, and Direct NLRP3 Inflammasome Inhibitors for the Treatment of DSS-Induced Ulcerative Colitis” (J Med Chem, 2023)
Activity calls are given as the source filed them. No cut-off for these calls is given here.

What was measured:
[1] = target: NACHT, LRR and PYD domains-containing protein 3 (Homo sapiens, UniProt Q96P20); test: Inhibition of NLRP3 inflammasome in PMA-differentiated human THP-1 cells assessed as inhibition of LPS/nigericin-induced IL-1 beta secretion pretreated with LPS for 3 hrs followed by incubation with compound for 40 mins and later stimulated with nigericin for 35 mins by ELISA; assay type: cell-based
NACHT, LRR and PYD domains-containing protein 3, sequence (Q96P20 whole entry, the tested form may be a part): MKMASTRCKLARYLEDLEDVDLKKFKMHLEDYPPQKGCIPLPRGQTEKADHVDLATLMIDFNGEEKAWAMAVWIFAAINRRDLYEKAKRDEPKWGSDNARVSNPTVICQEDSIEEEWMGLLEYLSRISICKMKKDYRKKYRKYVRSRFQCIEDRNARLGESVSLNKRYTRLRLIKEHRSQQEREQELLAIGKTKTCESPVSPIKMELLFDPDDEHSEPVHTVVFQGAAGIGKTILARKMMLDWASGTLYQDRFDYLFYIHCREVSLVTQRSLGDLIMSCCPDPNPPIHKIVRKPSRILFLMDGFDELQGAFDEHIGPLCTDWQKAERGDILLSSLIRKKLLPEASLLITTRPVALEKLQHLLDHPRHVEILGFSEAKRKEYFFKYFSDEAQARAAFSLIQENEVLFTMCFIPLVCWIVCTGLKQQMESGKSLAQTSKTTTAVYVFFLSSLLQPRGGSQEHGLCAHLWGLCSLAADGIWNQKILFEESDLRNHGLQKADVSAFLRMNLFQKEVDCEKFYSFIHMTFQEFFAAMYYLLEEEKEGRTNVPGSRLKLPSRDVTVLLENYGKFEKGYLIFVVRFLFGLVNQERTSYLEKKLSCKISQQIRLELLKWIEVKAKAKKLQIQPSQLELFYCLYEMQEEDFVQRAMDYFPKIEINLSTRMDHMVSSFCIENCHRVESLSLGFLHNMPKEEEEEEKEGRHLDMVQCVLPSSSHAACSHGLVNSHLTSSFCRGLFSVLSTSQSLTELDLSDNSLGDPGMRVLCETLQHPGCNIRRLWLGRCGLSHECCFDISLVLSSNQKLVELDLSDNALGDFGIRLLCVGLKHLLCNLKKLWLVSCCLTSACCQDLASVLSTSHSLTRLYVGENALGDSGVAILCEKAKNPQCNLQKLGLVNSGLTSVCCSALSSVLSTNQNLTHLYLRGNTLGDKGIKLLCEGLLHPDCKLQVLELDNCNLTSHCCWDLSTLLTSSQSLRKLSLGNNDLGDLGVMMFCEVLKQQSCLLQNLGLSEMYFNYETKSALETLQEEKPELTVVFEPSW

[2] = Metabolic stability in human liver microsomes; assay type: ADME, Microsome
Mus musculus [3] = test: Antiinflammatory activity against DSS-induced ulcerative colitis C57BL/6 mouse model assessed as decrease in disease activity index at 30 mg/kg, ip fed with DSS for 6 days followed by administration with compound for 5 days; assay type: functional, organism-based; settings: time 5.0 day
Mus musculus [4] = test: Antiinflammatory activity against DSS-induced ulcerative colitis C57BL/6 mouse model assessed as decrease in colon length shortening at 30 mg/kg, ip fed with DSS for 6 days followed by administration with compound for 5 days and measured on day 11; assay type: functional, organism-based; settings: time 5.0 day
THP-1 [5] = test: Effect on pro-IL-1beta protein expression in PMA-differentiated human THP-1 cells at 0.5 uM pretreated with compound for 40 mins followed by LPS challenge for 3 hrs by western blot analysis; assay type: functional, cell-based; settings: time 220.0 min
THP-1 [6] = test: Effect on NLRP3 protein expression in PMA-differentiated human THP-1 cells at 0.5 uM pretreated with compound for 40 mins followed by LPS challenge for 3 hrs by western blot analysis; assay type: functional, cell-based; settings: time 220.0 min

| Structure (SMILES) | IC50 [1] | other results |
| --- | --- | --- |
| CC(C)c1nn(CC(=O)NC2CCOCC2)c(=O)c2cc(Nc3ccccc3)cn12 | > 10 µM |  |
| Cc1cccc(-c2nnc(Cn3nc(C(C)C)n4c(cc5sc(Cl)cc54)c3=O)o2)c1 | > 10 µM |  |
| CC(C)c1nn(CC(=O)NC2CCOCC2)c(=O)c2cc3ccccc3n12 | > 10 µM |  |
| CC(C)c1nn(CC(=O)NC2CCOCC2)c(=O)c2ccc(-c3ccc(Cl)s3)n12 | > 10 µM |  |
| CC(C)c1nn(Cc2nnc(-c3cc(C(F)(F)F)cnc3Cl)o2)c(=O)c2cc3sc(Cl)cc3n12 | 1.77 µM |  |
| CC(C)c1nn(Cc2nnc(C3CCOCC3)o2)c(=O)c2cc3sccc3n12 | > 10 µM |  |
| CC(C)c1nn(Cc2nnc(-c3cccc(C#N)c3)o2)c(=O)c2cc3sc(Cl)cc3n12 | 0.38 µM |  |
| CC(C)c1nn(Cc2nnc(C3CCCCC3)o2)c(=O)c2cc3sc(Cl)cc3n12 | 1.9 µM |  |
| CC(C)c1nn([C@@H](C)c2nnc(-c3ccc(C(F)(F)F)nc3Cl)o2)c(=O)c2cc3sc(Cl)cc3n12 | > 10 µM |  |
| CC(C)c1nn(Cc2nnc(-c3cccnc3)[nH]2)c(=O)c2cc3sc(Cl)cc3n12 | > 10 µM |  |
| CC(C)c1nn(Cc2nnc(C3CCOCC3)o2)c(=O)c2cc3sc(Cl)cc3n12 | 2.41 µM |  |
| CC(C)c1nn(Cc2nnc(-c3cccnc3)o2)c(=O)c2cc3sc(Cl)cc3n12 | 1.89 µM |  |
| CC(C)c1nn(CC(=O)NC2CCOCC2)c(=O)c2cc3sc(Cl)cc3n12 |  | half-life [2]: 18.7 min; Activity (Mus musculus [3]): Active; Activity (Mus musculus [4]): Active |
| CC(C)c1nn(Cc2nnc(-c3cnccn3)o2)c(=O)c2cc3sc(Cl)cc3n12 | 2.24 µM |  |
| CC(C)(O)c1coc(S(=O)(=O)NC(=O)Nc2c3c(cc4c2CCC4)CCC3)c1 |  | Activity (THP-1 [5]): inactive; Activity (THP-1 [6]): inactive |
| O=C(CN1CCn2c(cc3sccc32)C1=O)NC1CCOCC1 | > 10 µM |  |
| CC(C)c1nn(CC(=O)NC2CCOCC2)c(=O)c2cc3cc(Cl)ccc3n12 | > 10 µM |  |
| CC(C)c1nn(CC(=O)NC2CCOCC2)c(=O)c2cc(NC3COC3)cn12 | > 10 µM |  |
| Cc1ccc(-c2nnc(Cn3nc(C(C)C)n4c(cc5sc(Cl)cc54)c3=O)o2)c(Cl)n1 |  | half-life [2]: 15.2 min |
| CC(C)c1nn(CC(=O)NC2CCOCC2)c(=O)c2ccc(-c3ccsc3)n12 | > 10 µM |  |
| COc1cccc(-c2nnc(Cn3nc(C(C)C)n4c(cc5sc(Cl)cc54)c3=O)o2)c1 | > 10 µM |  |
| [2H]C([2H])(c1nnc(-c2ccc(C(F)(F)F)nc2Cl)o1)n1nc(C(C)C)n2c(cc3sc(Cl)cc32)c1=O |  | half-life [2]: 25.1 min |
| CC(C)c1nn(Cc2nnc(-c3ccncn3)o2)c(=O)c2cc3sc(Cl)cc3n12 | 1.24 µM |  |
| O=C(CNC(=O)c1cc2sccc2[nH]1)NC1CCOCC1 | > 10 µM |  |
| CC(C)c1nn([C@H](C)c2nnc(-c3ccc(C(F)(F)F)nc3Cl)o2)c(=O)c2cc3sc(Cl)cc3n12 | > 10 µM | half-life [2]: 59.2 min |
| CC(C)c1nn(CC(=O)NC2CCOCC2)c(=O)c2cccn12 | > 10 µM |  |
| CC(C)c1nn(Cc2nnc(-c3cc(F)cnc3Cl)o2)c(=O)c2cc3sc(Cl)cc3n12 |  | half-life [2]: 7.66 min |
| CC(C)c1nn(Cc2nnc(-c3ccc(F)nc3F)o2)c(=O)c2cc3sc(Cl)cc3n12 |  | half-life [2]: 8.86 min |
